In patent publication US20010014699A1, “Benflumetol derivatives, intermediates thereof and their use against parasitical protozoa and trematodes” (priority 1998, published 2001):
Read-outs that look alike come from different tables or passages of the source.

Experiments:
[1] = cited from earlier work
[2] = system: Plasmodium falciparum isolates; assay: WHO Standard Microtest, inhibition of schizont maturation in vitro; format: cell-based; conditions: for power ratio (PR) between benflumetol and the compound: Litchfield & Wilcoxon comparison; for efficacy compared with benflumetol (in words): Plasmodium falciparum in vitro; for inhibition at 0.003 µM: 3.0 nmol/l; for inhibition at 0.01 µM: 10.0 nmol/l; for inhibition at 0.03 µM: 30.0 nmol/l; for inhibition at 0.1 µM: 100.0 nmol/l; for inhibition at 0.3 µM: 300.0 nmol/l; for inhibition at 1 µM: 1000.0 nmol/l; for inhibition at 3 µM: 3000.0 nmol/l; for EC50: probit analysis, 95% confidence limits
Procedure: The study is carried out in Mae Sot, a province in north-west Thailand close to Myanmar. […] The test for efficacy is carried out with blood samples obtained by finger pricks (in accordance with the WHO Standard Microtest Method for studying the inhibition of schizont maturation, see Wemsdorfer, W. H., and Payne, D. (1988), Drug Sensitivity Tests. In: Wemsdorfer, W. H., and McGregor, I. A. (Editors), Malaria: Principles and practice of malariology; Churchill Livingstone, Edinburgh). The tests are carried out in parallel with benflumetol and the 2-alkylamino-1-[2,7-dichloro-9-(4-chlorobenzylidene]-9H-fluoren-4-yl)ethanols in concentrations between 3 and 3000 nmol/l in blood medium mixture (BMM) using materials from the WHO Standard Test Kit supplied by the WHO Regional Office for the Western Pacific, Manila, except for the predosed microtitre plates, which are prepared in the laboratory of the institute of Specific Prophylaxis and Tropical Medicine, University of Vienna, Austria.
The procedure for determining parasitaemia before incubation follows the WHO Standard Method (WHO (1991), Basic malaria microscopy. Part I; WHO, Geneva). The schizont titres are determined as described in Wemsdorfer and Payne (1988) (see above).
The statistical analysis of the data was carried out according to log-concentration/response probit analysis (Litchfield & Wilcoxon (1949), J. Exp. Pharmacol. 89, 99-113). This method is based on the least-squares procedure and is the most widely accepted method for the analysis of dose-response studies. A computer adaptation of the method (Wernsdorfer & Wernsdorfer, Mitteilungen der Österreichischen Gesellschaft für Tropenmedizin und Parasitologie 17, 221-228) is used for data processing.

[3] = taken with foods having a high fat content; cited from earlier work
[4] = cited from earlier work; remark: listed apart in the source
[5] = Plasmodium falciparum, 34-isolate test series (Examples 6.2 and 6.3)
[6] = Plasmodium falciparum, 34-isolate test series (Examples 6.2 and 6.3), read-out: EC50: mean value
[7] = Plasmodium falciparum, 58 isolates (Example 6.1)

EC50 [2, 6] [nM]	SMILES	concentration at which none of the isolates shows schizont maturation ([2]; 34 isolates)	power ratio (PR) between benflumetol and the compound ([2]; 34 isolates)	efficacy compared with benflumetol (in words) [2]	inhibition at 0.003 µM [2, 5] [%]	inhibition at 0.01 µM [2, 5] [%]	inhibition at 0.03 µM [2, 5] [%]	inhibition at 0.1 µM [2, 5] [%]	inhibition at 0.3 µM [2, 5] [%]	inhibition at 1 µM [2, 5] [%]	inhibition at 3 µM [2, 5] [%]	isolates completely inhibited ([2]; at 100 nml/l, 34 isolates) [%]	further results
–	CCN(CC)CCCC(C)Nc1ccnc2cc(Cl)ccc12 (stereo not shown) [Chloroquine]	–	–	–	–	–	–	–	–	–	–	–	half-life (in words) ([1]; in vivo): very long half-life
10.5	CNCC(O)c1cc(Cl)cc2c1-c1ccc(Cl)cc1C2=Cc1ccc(Cl)cc1 (stereo not shown) [5a, 2-Methylamino-1-[2,7-dichloro-9-(4-chlorobenzylidene)-9H-fluoren-4yl]ethanol]	1000 nmol/L	2.8898	about four times as effective as benflumetol	13.1	51.9	83.1	95.8	97.1	100	100	96	EC99 of the compound as fraction of that for benflumetol ([2]; 34 isolates): about one fifth
14.4	CCCCCNCC(O)c1cc(Cl)cc2c1-c1ccc(Cl)cc1C2=Cc1ccc(Cl)cc1 (stereo not shown) [5c, 2-n-Pentylamino-1-[2,7-dichloro-9-(4-chlorobenzylidene)-9H-fluoren-4yl]ethanol]	3000 nmol/L	2.0724	about five times as effective as benflumetol	6.83	36.4	81.2	94.8	97	99.6	100	95	EC99 of the compound, times lower than that for benflumetol ([2]; 34 isolates): about 4 times
–	CO[C@H]1O[C@@H]2O[C@@]3(C)CC[C@H]4[C@H](C)CC[C@@H]([C@H]1C)[C@@]24OO3 [artemether, [3R-(3α, 5αβ, 6β, 8αβ, 9α, 10α, 12β,-12aR)]-decahydro-10-methoxy-3,6,9-trimethyl-3,12-epoxy-12H-pyrano[4,3-j]-1,2-benzodioxepin]	–	–	–	–	–	–	–	–	–	–	–	half-life ([1]; in plasma): 2 h
28	CCCCN(CCCC)CC(O)c1cc(Cl)cc2c1-c1ccc(Cl)cc1C2=Cc1ccc(Cl)cc1 (stereo not shown) [benflumetol, 2-(di-n-butylamino)-1-[2,7-dichloro-9-(4-chlorobenzylidene)-9H-fluoren-4-yl]ethanol]	above 3000 nmol/l	–	–	7.16	18.4	42.8	90.7	96.2	99.9	100	–	concentration at which none of the isolates shows schizont maturation ([2]; 58 isolates): above 300 nmol/l; inhibition at 0.003 µM [2, 7]: 7.14%; inhibition at 0.01 µM [2, 7]: 20.4%; inhibition at 0.03 µM [2, 7]: 47.2%; inhibition at 0.1 µM [2, 7]: 90.7%; inhibition at 0.3 µM [2, 7]: 99.8%; inhibition at 1 µM [2, 7]: 100%; inhibition at 3 µM [2, 7]: 100%; EC50 ([2]; Plasmodium falciparum, read-out: EC50: mean value (50% inhibition versus controls not given active substance), 58 isolates (Example 6.1)): 24.4 nM; isolates completely inhibited ([2]; at 300 nmol/l, 34 isolates): 96%; isolates completely inhibited ([2]; at 300 nmol/l, 58 isolates): 97%; EC50 ([2]; read-out: EC50: mean value (50% inhibition versus controls not given active substance), 58 isolates (Example 6.1)): 24.4 nM; absorption with foods having a high fat content, times higher than in the absence of such fatty foods [3]: up to 16 times; plasma half-life ([1]; in patients): 4 to 6 days; solubility (in words) [4]: not very good
